Assay results as given in patent US6514955B1, “Multi-faceted method to repress reproduction of latent viruses in humans and animals” (HIV Diagnostics, Inc., priority 1993, dated 2003).

Columns and labels:
[1] = cited from earlier work
[2] = test system: hybridoma macrophages; experiment: Oxidant release in LPS or interferon activated hybridoma macrophages; type: cell-based
Source text: PMA activates the oxidative burst. The oxidant detected is the same oxidant seen in Kupfer liver cells and lung macrophages: peroxynitrite.

[3] = target: NADPH oxidase (Homo sapiens, UniProt P04839); conditions: cited from earlier work
Chain of NADPH oxidase (P04839 2-570 limits assumed): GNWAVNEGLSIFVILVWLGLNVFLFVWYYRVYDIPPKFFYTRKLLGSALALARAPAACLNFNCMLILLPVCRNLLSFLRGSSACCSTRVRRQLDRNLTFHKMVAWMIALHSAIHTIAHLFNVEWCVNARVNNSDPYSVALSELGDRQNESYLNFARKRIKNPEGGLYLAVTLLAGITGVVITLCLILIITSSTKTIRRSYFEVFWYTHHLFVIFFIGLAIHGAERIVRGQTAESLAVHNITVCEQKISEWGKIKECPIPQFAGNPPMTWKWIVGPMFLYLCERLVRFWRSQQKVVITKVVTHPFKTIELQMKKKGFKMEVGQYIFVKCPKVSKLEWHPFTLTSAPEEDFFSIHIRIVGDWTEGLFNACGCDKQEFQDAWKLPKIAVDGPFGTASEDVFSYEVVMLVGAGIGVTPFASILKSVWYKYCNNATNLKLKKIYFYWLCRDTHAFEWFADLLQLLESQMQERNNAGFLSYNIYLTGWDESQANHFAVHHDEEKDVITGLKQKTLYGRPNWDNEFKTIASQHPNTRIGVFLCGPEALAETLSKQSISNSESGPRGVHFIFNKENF
Chain of NADPH oxidase (P13498 2-195 partner limits assumed): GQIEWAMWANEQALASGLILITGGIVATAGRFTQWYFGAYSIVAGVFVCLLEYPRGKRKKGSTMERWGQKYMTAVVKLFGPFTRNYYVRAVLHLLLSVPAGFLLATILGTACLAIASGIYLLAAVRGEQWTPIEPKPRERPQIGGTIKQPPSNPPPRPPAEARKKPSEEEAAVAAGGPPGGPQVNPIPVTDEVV

For O=C1NC(C(=O)O)CS1 (stereo not shown) [2-oxo-4-thiazolidene carboxylic acid], the “Oral doses administered without toxicity” value ([1]; in vivo, po) is listed as 0.15 to 0.45 mmol/kg.

In the case of CCCCCCCCCCCCCC(=O)O[C@@H]1[C@@H](C)[C@@]2(O)[C@@H](C=C(CO)C[C@]3(O)C(=O)C(C)=C[C@@H]23)[C@@H]2C(C)(C)[C@]12OC(C)=O [phorbol myristate acetate], the “Stimulation of oxidant (peroxynitrite) produced” value [2] is reported as “about 40 fold”.

In the case of c1ccc2c(c1)[I+]c1ccccc1-2 [diphenylene iodonium], the “Concentration printed for NADPH oxidase inhibitor” value [3] is given as 15 nM.

In the case of CC(=O)N[C@@H](CS)C(=O)O [N-acetyl cysteine], the “Daily dose usable without toxic side effects” value ([1]; man, daily) is listed as “Up to 40 mg per kilogram of body weight”.
